Laboratory results taken from ChEMBL document CHEMBL3400132, “Design, synthesis and evaluation of novel 5,6,7-trimethoxyflavone-6-chlorotacrine hybrids as potential multifunctional agents for the treatment of Alzheimer's disease” (Bioorg Med Chem Lett, 2015).
Activity calls are given as the source filed them. The calls are words filed in the database; no cut-off is given here.

Legend:
Acetylcholinesterase [1] = molecular target: Acetylcholinesterase (Electrophorus electricus, UniProt O42275); assay: Inhibition of electric eel AChE using acetylthiocholine chloride as substrate after 15 mins by Ellman spectrophotometric method
Cholinesterase = Cholinesterase (Equus caballus, UniProt P81908); assay: Inhibition of equine serum BChE using acetylthiocholine chloride as substrate after 15 mins by Ellman spectrophotometric method
[2] = Selectivity index, ratio of IC50 for equine serum BChE to IC50 for electric eel AChE
[3] = Antioxidant activity assessed as Trolox equivalent per microM of compound after 15 mins by oxygen radical absorbance capacity fluorescein assay; format: physicochemical; details: 0.25 h
[4] = molecular target: Amyloid-beta precursor protein (Homo sapiens) (UniProt P05067); assay: Inhibition of self-induced Abeta(1 to 42) (unknown origin) aggregation at 25 uM after 24 hrs by Thioflavin T-based fluorometric assay
Acetylcholinesterase [5] = molecular target: Acetylcholinesterase (Homo sapiens, UniProt P22303); assay: Inhibition of human erythrocyte AChE using acetylthiocholine chloride as substrate after 15 mins by Ellman spectrophotometric method
PC-12 = assay: Protective activity against H2O2-induced rat PC12 cell injury assessed as cell viability incubated at 5 uM for 3 hrs before H2O2 addition measured after 5 hrs by MTT assay relative to untreated control; format: functional; details: read-out: Activity
[6] = molecular target: Acetylcholinesterase (Electrophorus electricus) (UniProt O42275); assay: Mixed-type inhibition of electric eel AChE using acetylthiocholine chloride as substrate after 15 mins by Lineweaver-Burk plot method
[7] = Permeability of the compound in DMSO-PBS/EtOH solution at 100 ug/ml by PAMPA; format: ADME; details: read-out: permeability

Amyloid-beta precursor protein (Homo sapiens), sequence (P05067 whole entry): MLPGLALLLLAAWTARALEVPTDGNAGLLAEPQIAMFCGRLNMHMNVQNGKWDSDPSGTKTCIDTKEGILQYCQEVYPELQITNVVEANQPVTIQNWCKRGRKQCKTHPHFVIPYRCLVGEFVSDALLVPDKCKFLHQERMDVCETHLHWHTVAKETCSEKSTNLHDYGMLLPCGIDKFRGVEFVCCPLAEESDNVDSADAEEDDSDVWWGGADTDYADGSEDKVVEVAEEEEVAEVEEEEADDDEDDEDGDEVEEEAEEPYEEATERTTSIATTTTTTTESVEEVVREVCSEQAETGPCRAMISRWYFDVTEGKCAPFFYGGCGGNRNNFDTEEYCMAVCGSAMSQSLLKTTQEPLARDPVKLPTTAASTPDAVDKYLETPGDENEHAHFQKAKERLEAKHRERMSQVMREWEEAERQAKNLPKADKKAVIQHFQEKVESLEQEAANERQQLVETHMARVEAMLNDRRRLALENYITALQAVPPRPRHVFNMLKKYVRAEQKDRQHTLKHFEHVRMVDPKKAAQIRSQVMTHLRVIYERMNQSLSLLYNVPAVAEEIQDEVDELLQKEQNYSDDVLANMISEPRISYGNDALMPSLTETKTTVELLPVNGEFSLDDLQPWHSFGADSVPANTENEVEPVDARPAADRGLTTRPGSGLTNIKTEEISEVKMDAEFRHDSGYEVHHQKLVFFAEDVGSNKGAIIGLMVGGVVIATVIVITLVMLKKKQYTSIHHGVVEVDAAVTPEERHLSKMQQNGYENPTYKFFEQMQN
Acetylcholinesterase (Homo sapiens, UniProt P22303), sequence (P22303 whole entry): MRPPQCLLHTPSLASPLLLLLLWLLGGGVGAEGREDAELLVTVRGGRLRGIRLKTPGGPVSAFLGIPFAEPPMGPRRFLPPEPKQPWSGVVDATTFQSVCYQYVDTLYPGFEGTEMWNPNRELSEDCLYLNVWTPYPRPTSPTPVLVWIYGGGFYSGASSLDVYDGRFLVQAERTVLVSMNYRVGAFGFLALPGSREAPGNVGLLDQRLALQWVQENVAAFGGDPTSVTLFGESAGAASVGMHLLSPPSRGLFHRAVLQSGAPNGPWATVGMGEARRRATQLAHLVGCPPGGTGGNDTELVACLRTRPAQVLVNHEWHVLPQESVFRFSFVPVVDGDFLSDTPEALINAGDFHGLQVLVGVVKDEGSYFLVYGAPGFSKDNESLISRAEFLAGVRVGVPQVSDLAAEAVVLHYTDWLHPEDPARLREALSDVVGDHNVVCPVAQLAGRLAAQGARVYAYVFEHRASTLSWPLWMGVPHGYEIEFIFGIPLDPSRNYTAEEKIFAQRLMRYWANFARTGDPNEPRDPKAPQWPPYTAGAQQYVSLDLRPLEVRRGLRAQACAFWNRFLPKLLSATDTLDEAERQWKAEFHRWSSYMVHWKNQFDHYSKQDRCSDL
Acetylcholinesterase (Electrophorus electricus, UniProt O42275), sequence (O42275 whole entry): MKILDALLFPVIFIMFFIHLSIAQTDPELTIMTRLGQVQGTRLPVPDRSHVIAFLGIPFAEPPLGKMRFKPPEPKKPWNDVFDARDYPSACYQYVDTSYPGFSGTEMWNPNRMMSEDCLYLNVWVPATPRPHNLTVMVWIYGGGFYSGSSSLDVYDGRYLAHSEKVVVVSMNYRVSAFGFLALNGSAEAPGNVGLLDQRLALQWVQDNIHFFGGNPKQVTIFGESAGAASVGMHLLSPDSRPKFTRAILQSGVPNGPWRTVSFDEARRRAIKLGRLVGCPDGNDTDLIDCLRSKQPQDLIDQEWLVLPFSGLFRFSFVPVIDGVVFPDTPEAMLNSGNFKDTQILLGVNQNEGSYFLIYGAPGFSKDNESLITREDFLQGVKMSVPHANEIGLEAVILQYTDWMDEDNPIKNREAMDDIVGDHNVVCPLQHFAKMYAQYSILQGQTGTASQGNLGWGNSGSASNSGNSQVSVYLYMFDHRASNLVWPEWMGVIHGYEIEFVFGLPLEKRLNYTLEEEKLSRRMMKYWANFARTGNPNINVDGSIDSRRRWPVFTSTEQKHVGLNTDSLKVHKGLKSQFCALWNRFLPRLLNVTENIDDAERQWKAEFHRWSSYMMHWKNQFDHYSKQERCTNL
Cholinesterase, sequence (P81908 whole entry): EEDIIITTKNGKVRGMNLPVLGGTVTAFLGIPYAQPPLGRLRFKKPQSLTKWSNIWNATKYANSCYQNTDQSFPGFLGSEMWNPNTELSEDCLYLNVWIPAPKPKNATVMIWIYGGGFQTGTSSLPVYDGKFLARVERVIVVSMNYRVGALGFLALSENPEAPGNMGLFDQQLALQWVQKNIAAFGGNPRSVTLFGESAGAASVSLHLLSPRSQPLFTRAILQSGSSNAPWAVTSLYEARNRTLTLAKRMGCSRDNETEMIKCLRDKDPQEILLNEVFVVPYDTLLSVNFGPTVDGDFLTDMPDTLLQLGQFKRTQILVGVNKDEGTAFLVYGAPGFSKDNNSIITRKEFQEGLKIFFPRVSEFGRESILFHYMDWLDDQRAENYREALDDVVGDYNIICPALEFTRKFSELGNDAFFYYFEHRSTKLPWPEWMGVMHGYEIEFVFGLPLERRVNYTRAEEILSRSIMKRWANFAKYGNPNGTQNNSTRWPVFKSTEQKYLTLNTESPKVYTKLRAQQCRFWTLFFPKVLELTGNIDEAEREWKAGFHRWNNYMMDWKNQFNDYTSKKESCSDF
Acetylcholinesterase (Electrophorus electricus), sequence (O42275 24-633 limits assumed): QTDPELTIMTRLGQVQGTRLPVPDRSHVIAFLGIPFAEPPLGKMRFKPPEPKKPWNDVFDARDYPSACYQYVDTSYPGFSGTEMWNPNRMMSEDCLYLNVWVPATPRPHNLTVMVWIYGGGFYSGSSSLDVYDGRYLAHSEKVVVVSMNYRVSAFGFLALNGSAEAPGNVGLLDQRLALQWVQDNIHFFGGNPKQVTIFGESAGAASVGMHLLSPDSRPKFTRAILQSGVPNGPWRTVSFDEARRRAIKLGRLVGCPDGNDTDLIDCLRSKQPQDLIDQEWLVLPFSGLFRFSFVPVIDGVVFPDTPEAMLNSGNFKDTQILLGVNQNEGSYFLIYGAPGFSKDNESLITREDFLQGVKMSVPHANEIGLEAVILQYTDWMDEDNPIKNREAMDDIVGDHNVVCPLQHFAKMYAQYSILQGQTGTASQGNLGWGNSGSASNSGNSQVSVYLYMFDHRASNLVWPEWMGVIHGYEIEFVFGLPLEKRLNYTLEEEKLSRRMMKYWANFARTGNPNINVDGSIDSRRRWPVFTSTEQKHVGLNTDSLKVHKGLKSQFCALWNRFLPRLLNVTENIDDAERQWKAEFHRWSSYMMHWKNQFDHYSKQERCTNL

## COc1cc2oc(-c3cccc(OCC(=O)NCCCNc4c5c(nc6cc(Cl)ccc46)CCCC5)c3)cc(=O)c2c(OC)c1OC
Acetylcholinesterase [1]
  IC50: 38.2 nM
Cholinesterase
  IC50: 819 nM
[2]
  Ratio IC50: 15.4
[3]
  fold change (Trolox equivalents (ORAC)): 0.57
[4]
  inhibition: 30.6%

## COc1cc2oc(-c3ccc(OCC(=O)NCCCCCCNc4c5c(nc6cc(Cl)ccc46)CCCC5)cc3)cc(=O)c2c(OC)c1OC
Acetylcholinesterase [1]
  IC50: 41.3 nM
Acetylcholinesterase [5]
  IC50: 21.6 nM
Cholinesterase
  IC50: 321 nM
[2]
  Ratio IC50: 10.3
[3]
  fold change (Trolox equivalents (ORAC)): 0.52
[4]
  inhibition: 35.5%

## COc1cc2oc(-c3cccc(OCC(=O)NCCCCCCNc4c5c(nc6cc(Cl)ccc46)CCCC5)c3)cc(=O)c2c(OC)c1OC
Acetylcholinesterase [1]
  IC50: 47.2 nM
Acetylcholinesterase [5]
  IC50: 32.5 nM
Cholinesterase
  IC50: 969 nM
[2]
  Ratio IC50: 20.5
[3]
  fold change (Trolox equivalents (ORAC)): 0.47
[4]
  inhibition: 34.3%

## COc1cc2oc(-c3ccc(OCC(=O)NCCCNc4c5c(nc6cc(Cl)ccc46)CCCC5)cc3)cc(=O)c2c(OC)c1OC
Acetylcholinesterase [1]
  IC50: 29.4 nM
Cholinesterase
  IC50: 549 nM
[2]
  Ratio IC50: 13.9
[3]
  fold change (Trolox equivalents (ORAC)): 0.62
[4]
  inhibition: 25.6%

## COc1cc2oc(-c3ccc(O)cc3)cc(=O)c2c(OC)c1OC
Acetylcholinesterase [1]
  IC50: > 100000 nM
Cholinesterase
  IC50: > 100000 nM
[3]
  fold change (Trolox equivalents (ORAC)): 5.7
[4]
  inhibition: 11.2%

## COc1cc2oc(-c3cccc(OCC(=O)NCCCCCNc4c5c(nc6cc(Cl)ccc46)CCCC5)c3)cc(=O)c2c(OC)c1OC
Acetylcholinesterase [1]
  IC50: 20.9 nM
Acetylcholinesterase [5]
  IC50: 17.3 nM
Cholinesterase
  IC50: 291 nM
[2]
  Ratio IC50: 12.7
[3]
  fold change (Trolox equivalents (ORAC)): 0.53
[4]
  inhibition: 32.5%

## COc1cc2oc(-c3cccc(O)c3)cc(=O)c2c(OC)c1OC
Acetylcholinesterase [1]
  IC50: > 100000 nM
Cholinesterase
  IC50: > 100000 nM
[3]
  fold change (Trolox equivalents (ORAC)): 3.6
[4]
  inhibition: 17.4%

## COc1cc2oc(-c3ccc(OCC(=O)NCCCCNc4c5c(nc6cc(Cl)ccc46)CCCC5)cc3)cc(=O)c2c(OC)c1OC
Acetylcholinesterase [1]
  IC50: 52.8 nM
Cholinesterase
  IC50: 1240 nM
[2]
  Ratio IC50: 23.5
[3]
  fold change (Trolox equivalents (ORAC)): 0.58
[4]
  inhibition: 30.3%

## COc1cc2oc(-c3ccc(OCC(=O)NCCCCCNc4c5c(nc6cc(Cl)ccc46)CCCC5)cc3)cc(=O)c2c(OC)c1OC
Acetylcholinesterase [1]
  IC50: 12.8 nM
Acetylcholinesterase [5]
  IC50: 6.9 nM
Cholinesterase
  IC50: 463 nM
[2]
  Ratio IC50: 36.2
[3]
  fold change (Trolox equivalents (ORAC)): 0.55
[4]
  inhibition: 33.8%
PC-12
  viability at 5 µM: 45.3%
[6]
  inhibition: Active
[7]
  Papp at 100 ug/ml: 7.92 ×10⁻⁶ cm/s

## COc1cc2oc(-c3cccc(OCC(=O)NCCCCNc4c5c(nc6cc(Cl)ccc46)CCCC5)c3)cc(=O)c2c(OC)c1OC
Acetylcholinesterase [1]
  IC50: 68.2 nM
Cholinesterase
  IC50: 1020 nM
[2]
  Ratio IC50: 15
[3]
  fold change (Trolox equivalents (ORAC)): 0.55
[4]
  inhibition: 31.8%

## Nc1c2c(nc3cc(Cl)ccc13)CCCC2
Cholinesterase
  IC50: 16.5 nM
[3]
  fold change (FC): 0.17
